Measurements: PMC4085599, “Preliminary Studies on Validation of Calu-3 Cell Line as a Model for Screening Respiratory Mucosa Irritation and Toxicity” (Pharmaceutics, 2014)
Where two headings read alike, the source gives them in different places.

Tests used:
eye = test system: eye; parameters: method as in PMID 12140180; conditions: ECETOC eye irritation data bank, ref [12], cited from earlier work
Calu-3 cells = test: MTT cell viability assay on Calu-3 cells after exposure to test solutions; assay type: cell-based, Human; conditions: for Calu-3 model prediction (irritant if viability 50% and below) compared with European Union class / Calu-3 cells killed: 60 min exposure; for Calu-3 model prediction (irritant if viability 50% and below) compared with European Union class: ECVAM protocol; for Calu-3 %Viability ± SD: 60 min incubation, MTT, relative to negative control, n = 4; for Calu-3 cells killed: 0.2% w/v
Description: (§1) The Calu-3 cells were used at passages 5–10. They were cultured in 96-well plates (Fisher Scientific) in 1:1 DMEM/F-12 supplemented with 10% FBS, 1% Glutamax®, 100 U/mL penicillin, and […] streptomycin using our previously described method. The tissue culture medium was changed every two days.
(§2) Irritant selection, concentration and exposure time were based on mucociliary clearance time and published work in which the compounds were used. […] In order to provide a basis for comparison with other published work using other models three concentrations of the chemicals were selected (0.2%, 0.4% and 1.0%). To initiate the experiments, the cells were washed 3 times with PBS and allowed to equilibrate in 100 µL of buffered DMEM/F-12 (without phenol red) for 30 min. […] Cells were observed under the microscope for detachment before discarding the test solutions. Subsequently, the effect of the test compounds on the cells was determined using MTT assay.
(§3) Cell viability screening was based on cellular mitochondrial dehydrogenase (MDH) activity, measured by MTT reduction and conversion to blue formazan salt that was quantified after extraction from cells. MTT was used for predicting respiratory irritation because several studies have shown correlation between reduction in cell viability, decrease in epithelial electrical resistance and increases in biomarkers such as IL-1α and IL-1β. Cells grown in 96-well plates were used for the studies. After exposure of the cells to the solution of test compounds, the solutions were discarded and 100 μL of MTT (5.0 mg/mL) added to each well and incubated for 3 h at 37 °C. Subsequently, the MTT solution was removed and replaced with 100 μL isopropyl alcohol. The plates were then wrapped in aluminium foil and incubated for 2 h at 37 °C in order to extract formazan from the cells. Extracted formazan salt was quantified spectrophotometrically at 570 nm using Synergy™ HT multimode microplate reader (BioTek Instruments Incorporated). The absorbance of isopropyl alcohol (100 μL) was used as blank. The reduction of cell viability in treated cells was compared to negative control (cells incubated with DMEM/F-12) and expressed as a percentage.
(§4) Data acceptance criteria, calculation steps, interpretation and prediction model was done using the ECVAM Skin irritation Validation Study as contained in Standard Operating Procedure of Validation of the EpiSkin™ Test Method ^15 min–42 h for the prediction of acute skin irritation of chemicals. This was chosen because the model, as well as the cell viability assay method (MTT) has been accepted by intergovernmental agencies as being able to distinguish between irritants and non-irritants. However, we modified drug exposure time to reflect respiratory route of administration (15–60 min). […] Test compounds with mean relative viability values of 50% and below were considered irritant (I); those above 50% were considered non-irritant (NI) according to the ECVAM protocol.

[1] = as above; assay type: cell-based, Human; conditions: human, 60 min incubation, MTT, relative to negative control, n = 4, read-out: Calu-3 %Viability ± SD; for viability at 60 min, 0.2 % w/v: 0.2% w/v test solution; for viability at 60 min, 1 % w/v: 1.0% w/v test solution
Description: as §1, §2, §3, §4

Arion lusitanicus = test system: Arion lusitanicus; parameters: method as in Adriaens and Remon (2002) [12]; conditions: slug mucosal irritation model; ref Adriaens and Remon (2002) [12]; cited from earlier work
[2] = parameters: method as in earlier work; conditions: ref [19],[20], cited from earlier work
[3] = tick = compound belongs to this class

Row | Molecule | European Union Irritation Class: Non-Irritating (eye; [3]) | Calu-3 model prediction (irritant if viability 50% and below) compared with European Union class (Calu-3 cells; 0.2% w/v test solution) | Calu-3 %Viability ± SD (Calu-3 cells; 0.2% w/v test solution) | viability at 60 min, 0.2 % w/v ([1]; Calu-3 cells) [%] | viability at 60 min, 1 % w/v ([1]; Calu-3 cells) [%] | SMI model prediction compared with European Union class (Arion lusitanicus) | Calu-3 model prediction (irritant if viability 50% and below) compared with European Union class (Calu-3 cells; 1.0% w/v test solution) | Calu-3 %Viability ± SD (Calu-3 cells; 1.0% w/v test solution) [%] | Log p Octanol–Water [2] | European Union Class (eye; as listed in Table 2) | European Union Class (eye; as listed in Table 3) | European Union Irritation Class: R36 Irritating to Eye (eye; [3]) | Calu-3 cells killed (Calu-3 cells) | Calu-3 %Viability ± SD (Calu-3 cells; 1.0% w/v test solution, listed as sodium dodecyl sulphate USP) | European Union Irritation Class: R41 Risk of Serious Damage to Eye (eye; [3]) | viability at 60 min, 1 % w/v [1] [%] | Calu-3 %Viability ± SD (Calu-3 cells; 0.2% w/v test solution, listed as acetone) | Log p Octanol–Water ([2]; listed as acetone)
1 | CC(=O)CC(C)C [Methyl isobutyl ketone] | √ | correctly identified as non-irritant | no significant effect on the cell viability | 73.2 ± 7.4 | 90.3 ± 7.1 | wrongly classified | – | – | – | – | – | – | – | – | – | – | – | –
2 | Tween 20 | √ | correctly predicted | 57.1 ± 8.1% | – | – | correct predictions | false positive | 43.9 ± 2.5 | 2.39 | – | – | – | – | – | – | – | – | –
3 | CCCCCCCCCCCCOS(=O)(=O)[O-].[Na+] [Sodium dodecyl sulphate USP] | – | correctly predicted | 4.3 ± 0.1% | – | – | over-predictions | correctly predicted | 9.0 ± 0.1 | 1.60 | R36 | R36 | √ | more than 90% | less than 17% | – | – | – | –
4 | Triton X-100 | – | correctly predicted | 3.5 ± 0.5% | – | – | over-predictions | correctly predicted | – | 4.15 | R36 | R36 | √ | more than 90% | – | – | – | – | –
5 | CCCC(C)CO (stereo not shown) [2-Methyl-1-pentanol] | √ | correctly predicted | 95.0 ± 13.1% | 95.3 ± 13.1 | 2.9 ± 0.2 | – | false positive | – | 1.75 | – | – | – | – | – | – | – | – | –
6 | CCCCCCCCCCCCCCCC[n+]1ccccc1 [Cetylpyridinium bromide] | – | correctly predicted | – | 8.1 ± 1.1 | 5.4 ± 0.6 | correct predictions | correctly predicted | – | 1.83 | R41 | R41 | – | – | – | √ | < 17 | – | –
7 | CC(C)=O [Acetone] | – | false negative | 100.4 ± 13.7% | – | – | false negative | false negatives | 95.4 ± 16.5 | −0.24 | R36 | R36 | √ | – | – | – | – | no significant effect on the cell viability | negative Log p values
